Measurements taken from patent US10670605B2, “Cysteine reactive probes and uses thereof” (The Scripps Research Institute, priority 2015, dated 2020).
Each block holds one molecule with its values, some of them ahead of it.

How the values were obtained:
Experiment in all cases: Competitive isoTOP-ABPP in situ (fragment-treated cells)
Format in all cases: cell-based
[1] = biological target: T1, cysteines in MDA-MB-231 and Ramos cells (Homo sapiens, UniProt Q9NWA0)
T1 sequence (Q9NWA0 1-146): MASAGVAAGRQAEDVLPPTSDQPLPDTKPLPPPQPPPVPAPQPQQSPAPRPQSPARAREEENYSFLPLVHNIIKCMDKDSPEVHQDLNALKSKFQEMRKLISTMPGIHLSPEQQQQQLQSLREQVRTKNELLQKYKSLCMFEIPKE

[2] = biological target: T2, cysteines in MDA-MB-231 and Ramos cells (Homo sapiens, UniProt Q86UY8)
T2 sequence (Q86UY8 1-548): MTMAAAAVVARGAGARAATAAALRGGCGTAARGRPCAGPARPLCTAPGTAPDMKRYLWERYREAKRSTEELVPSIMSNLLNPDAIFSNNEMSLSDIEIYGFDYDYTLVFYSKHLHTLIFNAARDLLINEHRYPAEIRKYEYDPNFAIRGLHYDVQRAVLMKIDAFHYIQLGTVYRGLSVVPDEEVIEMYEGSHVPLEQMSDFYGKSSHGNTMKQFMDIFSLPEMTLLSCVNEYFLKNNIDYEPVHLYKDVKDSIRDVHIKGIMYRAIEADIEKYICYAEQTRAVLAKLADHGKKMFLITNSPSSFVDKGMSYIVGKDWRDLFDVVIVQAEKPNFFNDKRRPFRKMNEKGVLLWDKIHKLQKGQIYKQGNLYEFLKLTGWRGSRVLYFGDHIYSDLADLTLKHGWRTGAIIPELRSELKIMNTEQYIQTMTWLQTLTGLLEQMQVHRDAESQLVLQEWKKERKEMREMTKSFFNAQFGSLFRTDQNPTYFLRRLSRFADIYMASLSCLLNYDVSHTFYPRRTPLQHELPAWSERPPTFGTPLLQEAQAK

[3] = biological target: cysteines in MDA-MB-231 and Ramos cells (Homo sapiens, UniProt Q13630); conditions: 200 μM, insitu
Sequence of cysteines in MDA-MB-231 and Ramos cells (Homo sapiens, UniProt Q13630) (Q13630 whole entry): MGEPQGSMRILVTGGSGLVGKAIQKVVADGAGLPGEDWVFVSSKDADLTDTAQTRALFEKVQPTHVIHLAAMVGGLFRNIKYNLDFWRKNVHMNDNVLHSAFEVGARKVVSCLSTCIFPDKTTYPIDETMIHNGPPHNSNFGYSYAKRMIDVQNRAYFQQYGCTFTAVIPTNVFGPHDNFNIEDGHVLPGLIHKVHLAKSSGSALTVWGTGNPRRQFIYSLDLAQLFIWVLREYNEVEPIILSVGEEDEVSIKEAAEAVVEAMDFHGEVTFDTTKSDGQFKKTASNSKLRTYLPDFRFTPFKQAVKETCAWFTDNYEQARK

[4] = biological target: cysteines in MDA-MB-231 and Ramos cells (Homo sapiens, UniProt P51610)
Sequence of cysteines in MDA-MB-231 and Ramos cells (Homo sapiens, UniProt P51610) (P51610 whole entry): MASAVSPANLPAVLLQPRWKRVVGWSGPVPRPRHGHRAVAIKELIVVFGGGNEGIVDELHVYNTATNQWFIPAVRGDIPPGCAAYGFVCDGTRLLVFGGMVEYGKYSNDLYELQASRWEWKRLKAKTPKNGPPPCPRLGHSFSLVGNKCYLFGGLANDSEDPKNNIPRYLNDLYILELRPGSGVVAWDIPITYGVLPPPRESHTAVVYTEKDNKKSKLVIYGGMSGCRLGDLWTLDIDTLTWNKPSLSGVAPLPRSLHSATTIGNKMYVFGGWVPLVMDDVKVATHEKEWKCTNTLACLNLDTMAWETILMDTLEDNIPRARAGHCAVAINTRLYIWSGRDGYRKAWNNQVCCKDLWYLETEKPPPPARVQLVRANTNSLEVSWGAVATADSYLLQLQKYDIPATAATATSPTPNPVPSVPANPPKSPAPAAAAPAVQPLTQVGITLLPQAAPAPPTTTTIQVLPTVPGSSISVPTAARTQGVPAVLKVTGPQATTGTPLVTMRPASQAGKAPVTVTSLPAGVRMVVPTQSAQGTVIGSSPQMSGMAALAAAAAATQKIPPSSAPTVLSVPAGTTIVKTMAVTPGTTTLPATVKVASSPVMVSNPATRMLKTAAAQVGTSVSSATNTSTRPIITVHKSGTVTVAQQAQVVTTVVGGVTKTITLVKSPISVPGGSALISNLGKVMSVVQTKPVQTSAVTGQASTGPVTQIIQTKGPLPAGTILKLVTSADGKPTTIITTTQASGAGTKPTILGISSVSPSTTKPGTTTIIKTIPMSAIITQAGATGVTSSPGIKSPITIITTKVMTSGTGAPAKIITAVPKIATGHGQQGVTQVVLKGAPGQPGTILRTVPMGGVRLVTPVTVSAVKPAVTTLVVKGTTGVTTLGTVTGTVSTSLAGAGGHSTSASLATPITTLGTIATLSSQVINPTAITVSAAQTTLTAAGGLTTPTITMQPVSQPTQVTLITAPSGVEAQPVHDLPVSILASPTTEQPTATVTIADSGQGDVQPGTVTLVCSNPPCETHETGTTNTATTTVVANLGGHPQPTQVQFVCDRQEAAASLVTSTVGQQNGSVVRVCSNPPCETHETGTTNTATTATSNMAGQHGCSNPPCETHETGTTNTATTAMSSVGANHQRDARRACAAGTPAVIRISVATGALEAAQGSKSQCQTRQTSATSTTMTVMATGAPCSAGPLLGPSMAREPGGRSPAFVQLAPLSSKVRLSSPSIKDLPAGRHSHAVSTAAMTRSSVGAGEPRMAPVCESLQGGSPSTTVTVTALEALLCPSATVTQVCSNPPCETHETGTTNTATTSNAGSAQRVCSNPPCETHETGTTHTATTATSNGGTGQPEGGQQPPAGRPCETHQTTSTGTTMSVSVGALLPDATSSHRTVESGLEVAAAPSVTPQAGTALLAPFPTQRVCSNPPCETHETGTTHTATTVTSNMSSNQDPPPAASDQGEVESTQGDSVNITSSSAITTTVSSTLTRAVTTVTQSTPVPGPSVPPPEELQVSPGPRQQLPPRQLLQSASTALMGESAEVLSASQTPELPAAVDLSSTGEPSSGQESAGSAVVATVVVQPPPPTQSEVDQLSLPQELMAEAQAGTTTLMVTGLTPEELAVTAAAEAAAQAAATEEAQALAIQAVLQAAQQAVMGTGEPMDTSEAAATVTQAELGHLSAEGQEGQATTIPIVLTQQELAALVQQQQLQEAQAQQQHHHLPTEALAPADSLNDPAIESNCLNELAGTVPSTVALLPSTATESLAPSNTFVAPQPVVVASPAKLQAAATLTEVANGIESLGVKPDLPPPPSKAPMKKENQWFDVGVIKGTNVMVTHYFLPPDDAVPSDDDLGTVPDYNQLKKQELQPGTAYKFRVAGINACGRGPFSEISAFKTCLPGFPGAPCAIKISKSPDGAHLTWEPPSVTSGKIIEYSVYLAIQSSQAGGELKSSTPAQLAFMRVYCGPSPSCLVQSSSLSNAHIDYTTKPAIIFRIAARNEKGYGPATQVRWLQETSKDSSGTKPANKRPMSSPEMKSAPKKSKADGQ

[5] = biological target: T3, cysteines in MDA-MB-231 and Ramos cells (Homo sapiens, UniProt Q96P48); conditions: 200 μM, insitu, 231
T3 sequence (Q96P48 1-1450): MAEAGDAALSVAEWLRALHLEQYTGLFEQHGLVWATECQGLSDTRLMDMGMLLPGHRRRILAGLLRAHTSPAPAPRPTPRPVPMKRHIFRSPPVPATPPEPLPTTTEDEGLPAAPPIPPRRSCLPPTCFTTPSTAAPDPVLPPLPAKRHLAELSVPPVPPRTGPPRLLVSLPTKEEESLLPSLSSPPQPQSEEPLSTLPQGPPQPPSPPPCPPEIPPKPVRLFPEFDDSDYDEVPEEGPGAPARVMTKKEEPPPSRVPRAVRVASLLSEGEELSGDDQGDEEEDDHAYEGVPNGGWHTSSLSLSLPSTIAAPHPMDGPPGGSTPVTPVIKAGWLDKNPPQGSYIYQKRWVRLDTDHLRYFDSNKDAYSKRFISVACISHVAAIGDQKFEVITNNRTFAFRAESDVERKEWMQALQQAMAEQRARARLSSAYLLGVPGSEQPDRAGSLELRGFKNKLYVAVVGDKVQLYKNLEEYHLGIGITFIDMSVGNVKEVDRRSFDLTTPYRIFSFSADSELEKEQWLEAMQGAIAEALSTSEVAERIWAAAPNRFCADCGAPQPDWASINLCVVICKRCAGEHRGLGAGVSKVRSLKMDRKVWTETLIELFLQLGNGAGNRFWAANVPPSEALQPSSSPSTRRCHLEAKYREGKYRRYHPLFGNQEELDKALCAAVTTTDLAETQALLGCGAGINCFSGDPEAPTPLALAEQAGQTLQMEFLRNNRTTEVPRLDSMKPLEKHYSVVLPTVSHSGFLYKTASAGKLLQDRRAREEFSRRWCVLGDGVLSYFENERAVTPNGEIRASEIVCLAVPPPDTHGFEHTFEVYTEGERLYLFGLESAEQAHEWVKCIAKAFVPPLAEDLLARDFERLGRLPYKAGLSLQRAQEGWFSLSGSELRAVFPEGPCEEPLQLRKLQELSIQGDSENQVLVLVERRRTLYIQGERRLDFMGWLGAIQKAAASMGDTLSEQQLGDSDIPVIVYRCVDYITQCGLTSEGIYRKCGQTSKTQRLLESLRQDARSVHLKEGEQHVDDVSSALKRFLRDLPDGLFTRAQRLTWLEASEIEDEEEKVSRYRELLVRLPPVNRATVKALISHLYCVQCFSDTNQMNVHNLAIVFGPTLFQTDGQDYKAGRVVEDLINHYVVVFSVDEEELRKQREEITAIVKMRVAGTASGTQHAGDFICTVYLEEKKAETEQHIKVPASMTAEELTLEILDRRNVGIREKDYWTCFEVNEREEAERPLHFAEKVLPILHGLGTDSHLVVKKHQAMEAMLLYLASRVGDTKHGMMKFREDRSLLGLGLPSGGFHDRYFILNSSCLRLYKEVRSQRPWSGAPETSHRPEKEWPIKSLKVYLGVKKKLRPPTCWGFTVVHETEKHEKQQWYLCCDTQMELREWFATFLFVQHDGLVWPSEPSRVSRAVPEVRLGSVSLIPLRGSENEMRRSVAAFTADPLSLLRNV

[6] = biological target: cysteines in MDA-MB-231 and Ramos cells (Homo sapiens, UniProt P53634)
Sequence of cysteines in MDA-MB-231 and Ramos cells (Homo sapiens, UniProt P53634) (P53634 25-463): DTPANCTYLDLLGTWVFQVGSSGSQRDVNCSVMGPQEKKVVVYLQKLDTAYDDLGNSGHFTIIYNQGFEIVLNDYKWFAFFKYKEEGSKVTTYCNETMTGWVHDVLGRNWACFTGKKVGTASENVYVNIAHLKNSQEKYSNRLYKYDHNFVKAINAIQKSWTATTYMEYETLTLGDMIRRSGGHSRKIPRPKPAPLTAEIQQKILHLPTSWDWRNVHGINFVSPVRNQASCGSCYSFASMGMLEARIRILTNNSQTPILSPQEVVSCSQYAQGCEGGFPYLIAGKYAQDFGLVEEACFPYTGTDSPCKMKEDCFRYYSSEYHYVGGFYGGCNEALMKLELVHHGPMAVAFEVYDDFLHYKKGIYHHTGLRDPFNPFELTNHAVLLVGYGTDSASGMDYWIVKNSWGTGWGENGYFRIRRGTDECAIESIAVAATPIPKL

[7] = biological target: cysteines in MDA-MB-231 and Ramos cells (Homo sapiens, UniProt Q9Y6G9)
Sequence of cysteines in MDA-MB-231 and Ramos cells (Homo sapiens, UniProt Q9Y6G9) (Q9Y6G9 whole entry): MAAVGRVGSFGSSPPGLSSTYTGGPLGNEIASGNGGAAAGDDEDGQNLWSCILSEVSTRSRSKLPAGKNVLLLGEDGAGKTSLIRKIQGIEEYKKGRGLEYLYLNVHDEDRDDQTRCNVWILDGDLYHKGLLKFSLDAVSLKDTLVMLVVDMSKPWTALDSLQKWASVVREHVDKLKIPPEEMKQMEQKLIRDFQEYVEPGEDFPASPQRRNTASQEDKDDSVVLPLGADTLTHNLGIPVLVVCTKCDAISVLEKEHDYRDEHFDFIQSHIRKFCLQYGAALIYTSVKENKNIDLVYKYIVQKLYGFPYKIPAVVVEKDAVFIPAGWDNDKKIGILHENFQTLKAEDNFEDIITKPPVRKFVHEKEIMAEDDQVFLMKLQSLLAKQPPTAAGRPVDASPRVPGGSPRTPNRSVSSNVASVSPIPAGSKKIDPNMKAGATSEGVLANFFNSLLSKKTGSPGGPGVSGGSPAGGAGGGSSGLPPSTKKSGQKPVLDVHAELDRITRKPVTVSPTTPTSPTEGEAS

[8] = biological target: T4, cysteines in MDA-MB-231 and Ramos cells (Homo sapiens, UniProt P35754)
T4 sequence (P35754 1-106): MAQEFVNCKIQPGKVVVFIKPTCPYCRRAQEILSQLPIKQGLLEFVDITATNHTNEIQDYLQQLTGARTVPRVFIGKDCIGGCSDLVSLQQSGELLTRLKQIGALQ

[9] = biological target: T5, cysteines in MDA-MB-231 and Ramos cells (Homo sapiens, UniProt O00244)
T5 sequence (O00244 1-68): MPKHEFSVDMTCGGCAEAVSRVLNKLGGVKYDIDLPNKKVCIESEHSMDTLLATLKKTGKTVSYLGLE

Structure (SMILES): COc1ccc(C2CC(c3cccs3)=NN2C(=O)CCl)cc1 (stereo not shown) [compound 4]
isoTOP-ABPP reactivity Q9NWA0_0139 MED9 ([1]; 100 μM in situ 231): 14
isoTOP-ABPP reactivity Q9Y6G9_C51 DYNC1LI1 ([7]; 100 μM in situ 231): 3.5
isoTOP-ABPP reactivity P35754_C23 GLRX ([8]; 100 μM in situ 231): 20.0
isoTOP-ABPP reactivity P53634_C258 CTSC ([6]; 100 μM in situ 231): 1.2

Structure (SMILES): COc1cc2c(cc1OC)CN(C(=O)CCl)CC2 [compound 8]
isoTOP-ABPP reactivity Q9Y6G9_C51 DYNC1LI1 ([7]; 200 μM, insitu, 231): 4.1

Structure (SMILES): Cn1cc(S(=O)(=O)N2CCOCC2)cc1C(=O)NC(=O)CCl [compound 11]
isoTOP-ABPP ratio Q86UY8_C276 ([2]; 100 μM in situ 231): 1.4
isoTOP-ABPP ratio, cysteine O00244_C12 ([9]; 100 μM in situ 231): 0.7
isoTOP-ABPP ratio P35754_C23 ([8]; 100 μM in situ 231): 20.0
isoTOP-ABPP ratio, cysteine P51610_C1872 ([4]; 100 μM in situ 231): 0.5

Structure (SMILES): O=C(CCl)NC(=O)NC12CC3CC(CC(C3)C1)C2 [compound 12]
isoTOP-ABPP ratio, cysteine Q9NWA0_C139 ([1]; 200 μM, insitu, 231): 20.0
isoTOP-ABPP ratio Q9Y6G9_C51 ([7]; 200 μM, insitu, 231): 6.5
isoTOP-ABPP ratio Q86UY8_C276 ([2]; 200 μM, insitu, 231): 20.0
isoTOP-ABPP ratio P35754_C23 ([8]; 200 μM, insitu, 231): 20.0
isoTOP-ABPP ratio, cysteine Q96P48_C900 [5]: 1.9
isoTOP-ABPP ratio, cysteine P53634_C258 ([6]; 200 μM, insitu, 231): 13.4

Now from value to molecule, other results behind:

isoTOP-ABPP reactivity Q9NWA0_0139 MED9 ([1]; 200 μM, insitu, 231): 4.3
isoTOP-ABPP reactivity Q86UY8_C276 NT5DC3 ([2]; 200 μM, insitu, 231): 3.8
isoTOP-ABPP reactivity Q13630_C116 TSTA3 [3]; 231: 20.0
isoTOP-ABPP reactivity P51610_C1872 HCFC1 ([4]; 200 μM, insitu, 231): 4.1
isoTOP-ABPP reactivity Q96P48_C900 ARAP1 [5]: 5.5
isoTOP-ABPP reactivity P53634_C258 CTSC ([6]; 200 μM, insitu, 231): 0.9
Structure (SMILES): COc1ccc2c(c1)CCCN2C(=O)CCl [compound 2]

isoTOP-ABPP reactivity Q13630_C116 TSTA3 [3]; 231: 1.9
Structure (SMILES): O=C(CCl)N1CCC(Cc2ccccc2)CC1 [compound 9]
isoTOP-ABPP reactivity O00244_C12 ATOX1 ([9]; 200 μM, insitu, 231): 4.7

isoTOP-ABPP ratio, cysteine Q9NWA0_C139 ([1]; 200 μM, insitu, 231): 2.9
isoTOP-ABPP ratio Q9Y6G9_C51 ([7]; 200 μM, insitu, 231): 4.9
isoTOP-ABPP ratio Q86UY8_C276 ([2]; 200 μM, insitu, 231): 5.8
isoTOP-ABPP ratio, cysteine Q13630_C116 [3]; 231: 20.0
isoTOP-ABPP ratio, cysteine O00244_C12 ([9]; 200 μM, insitu, 231): 2.1
isoTOP-ABPP ratio P35754_C23 ([8]; 200 μM, insitu, ramos): 13.0
isoTOP-ABPP ratio, cysteine P51610_C1872 ([4]; 200 μM, insitu, 231): 1.5
isoTOP-ABPP ratio, cysteine Q96P48_C900 [5]: 1.8
isoTOP-ABPP ratio, cysteine P53634_C258 ([6]; 200 μM, insitu, 231): 5.5
Structure (SMILES): O=C(CCl)N1CCN(S(=O)(=O)c2ccccc2F)CC1 [compound 10]

isoTOP-ABPP ratio, cysteine Q9NWA0_C139 ([1]; 200 μM, insitu, 231): 1.1
isoTOP-ABPP ratio Q9Y6G9_C51 ([7]; 200 μM, insitu, ramos): 1.5
isoTOP-ABPP ratio Q86UY8_C276 ([2]; 200 μM, insitu, 231): 1.5
isoTOP-ABPP ratio, cysteine Q13630_C116 ([3]; ramos): 1.2
isoTOP-ABPP ratio, cysteine O00244_C12 ([9]; 200 μM, insitu, 231): 1.5
isoTOP-ABPP ratio, cysteine P51610_C1872 ([4]; 200 μM, insitu, 231): 1.0
isoTOP-ABPP ratio, cysteine Q96P48_C900 [5]: 1.2
isoTOP-ABPP ratio, cysteine P53634_C258 ([6]; 200 μM, insitu, 231): 1.6
Structure (SMILES): O=C(CCl)NCCc1c[nH]c2ccccc12 [compound 13]
